Target: T1, Human BCL-XL protein (N-terminal HiBiT tagged BCL-XL expressed in HT1080 cells) (Homo sapiens, UniProt Q07817)
T1 construct: expressed in transfected cells; host or cells: HT-1080 (ATCC CCL-121), stably transduced with lentivirus pLV-UBC-N-HiBiT-BCL-XL-PGK-puro and selected with puromycin
Test: HiBiT Based Degradation Assay
Type: cell-based
Conditions: 24 hours incubation; for DC50: BCL-XL degradation, HT1080 cells expressing N-HiBiT-BCL-XL, normalized with DMSO control, geometric mean for multiple data points, read-out: EC50 (24 h); for Ymin (24 h): bottom of BCL-XL degradation curve (remaining HiBiT-BCL-XL signal vs DMSO control), HT1080 cells
Source text: HiBiT Based Degradation Assay
Human BCL-XL protein coding open reading frame fused with N-terminal HiBiT coding sequence (N-HiBiT-BCL-XL) was synthesized from Integrated DNA Technologies (IDT). Next, N-HiBiT-BCL-XL sequence was cloned into pLV-UBC-PGK-Puro, a lentivirus plasmid purchased from Vectorbuilder, to generate pLV-UBC-N-HiBiT-BCL-XL-PGK-puro. Lentiviral particles were generated from Lenti-X™ 293T cells (Clontech) by co-transfection of pLV-UBC-N-HiBiT-BCL-XL-PGK-puro plasmids and lentiviral packaging plasmid mix (Cellecta). HT-1080 [HT1080](ATCC CCL-121™) cells were infected with the lentivirus, and HT1080 cells stably integrated with the lentiviral vector were established by incubation with 1 μg/mL puromycin (Thermofisher). HT1080 cells expressing N-terminal HiBiT tagged BCL-XL were dispensed into 384-well plates pre-spotted with compounds at varying concentrations. Three thousand cells were seeded into each well in 40 μL of RPMI 1640 media. After 24 hours of incubation at 37° C. with 5% CO2, 30 μL of the NANO-GLO® HiBiT Lytic Detection System working solution (Promega) was added to each well and incubated at room temperature for 30 min. After incubation, luminescence was read on a PHERAstar FSX Plate Reader (BMG). BCL-XL degradation at each indicated concentration was normalized with DMSO control. The BCL-XL degradation curves were plotted using a four-parameter logistic model. For compounds displaying hook effects, curve fitting was performed using bottom point of hook curves (i.e., the point of Ymin) as bottom plateau to calculate EC50. For compounds with multiple data points, the geometric mean is presented.

T1 sequence (Q07817 whole entry): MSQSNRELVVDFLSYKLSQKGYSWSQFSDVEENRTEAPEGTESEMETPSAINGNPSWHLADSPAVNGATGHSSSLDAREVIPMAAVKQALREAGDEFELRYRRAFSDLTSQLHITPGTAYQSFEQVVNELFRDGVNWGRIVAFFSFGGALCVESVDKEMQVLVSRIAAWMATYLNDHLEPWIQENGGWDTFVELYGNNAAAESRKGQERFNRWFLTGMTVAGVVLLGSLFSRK

| Structure (SMILES) | DC50 | Ymin (24 h) |
| --- | --- | --- |
| C[C@H](CCC1CCN(CC(=O)Nc2ccc3c(C4CCC(=O)NC4=O)nn(C)c3c2)CC1)Oc1ccc(-c2ccc(N3CCc4cccc(C(=O)Nc5nc6ccccc6s5)c4C3)nc2C(=O)O)c(C(F)(F)F)c1 (single isomer, unassigned) [Compound 138b] | 10 to 100 nM | B (30% ≤ Ymin < 50%) |
| Cc1c(OCCC[C@H]2CCN(CC(=O)Nc3ccc4c(C5CCC(=O)NC5=O)nn(C)c4c3)[C@H](C)C2)cccc1-c1ccc(N2CCc3ccnc(C(=O)Nc4nc5ccccc5s4)c3C2)nc1C(=O)O (some centres unmarked) [Compound 216c] | 10 to 100 nM | B (30% ≤ Ymin < 50%) |
| Cc1cc2c(C3CCC(=O)NC3=O)nn(C)c2cc1NC(=O)CN1CCC2(CC1)CC(COc1cccc(-c3ccc(N4CCc5cccc(C(=O)Nc6nc7ccccc7s6)c5C4)nc3C(=O)O)c1C)C2 (centres unmarked) [Compound 118] | 100 to 1000 nM | B (30% ≤ Ymin < 50%) |
| Cc1c(OCC2CC3(CCN(CC(=O)Nc4ccc5c(C6CCC(=O)NC6=O)nn(C)c5c4C)CC3)C2)cccc1-c1ccc(N2CCc3cccc(C(=O)Nc4nc5ccccc5s4)c3C2)nc1C(=O)O (centres unmarked) [Compound 117] | 10 to 100 nM | B (30% ≤ Ymin < 50%) |
| Cc1c(OCCCC2CCN(CC(=O)Nc3ccc4c(C5CCC(=O)NC5=O)nn(C)c4n3)CC2)cccc1-c1ccc(N2CCc3cccc(C(=O)Nc4nc5ccccc5s4)c3C2)nc1C(=O)O (centres unmarked) [Compound 101] | 10 to 100 nM | C (50% ≤ Ymin < 70%) |
| Cn1nc(C2CCC(=O)NC2=O)c2ccc(NC(=O)CN3CCC4(CC3)CC(COc3cccc(-c5ccc(N6CCc7cccc(C(=O)Nc8nc9ccccc9s8)c7C6)nc5C(=O)O)c3C(F)(F)F)C4)c(F)c21 (centres unmarked) [Compound 185] | 10 to 100 nM | B (30% ≤ Ymin < 50%) |
| Cc1c(OCCCC2CCN(CC(=O)Nc3ccc4c(C5CCC(=O)NC5=O)nn(C)c4c3)CC2)cccc1-c1ccc(N2CCc3ccnc(C(=O)Nc4nc5ccccc5s4)c3C2)nc1C(=O)O (centres unmarked) [Compound 106, 6-(8-(benzo[d]thiazol-2-ylcarbamoyl)-3,4-dihydro-2,7-naphthyridin-2(1H)-yl)-3-(3-(3-(1-(2-((3-(2,6-dioxopiperidin-3-yl)-1-methyl-1H-indazol-6-yl)amino)-2-oxoethyl)piperidin-4-yl)propoxy)-2-methylphenyl)picolinic acid] | 10 to 100 nM | B (30% ≤ Ymin < 50%) |
| COc1c(NC(=O)CN2CCC(CCCOc3ccc(-c4ccc(N5CCc6ccnc(C(=O)Nc7nc8ccccc8s7)c6C5)nc4C(=O)O)c(C(F)(F)F)c3)CC2)ccc2c(C3CCC(=O)NC3=O)nn(C)c12 (centres unmarked) [Compound 158, 6-[8-(1,3-benzothiazol-2-ylcarbamoyl)-3,4-dihydro-1H-2,7-naphthyridin-2-yl]-3-[4-[3-[1-[2-[[3-(2,6-dioxo-3-piperidyl)-7-methoxy-1-methyl-indazol-6-yl]amino]-2-oxo-ethyl]-4-piperidyl]propoxy]-2-(trifluoromethyl)phenyl]pyridine-2-carboxylic acid] | 10 to 100 nM | B (30% ≤ Ymin < 50%) |
| Cc1c(OCC2CC3(CCN(CC(=O)Nc4ccc5c(C6CCC(=O)NC6=O)nn(C)c5c4F)CC3)C2)cccc1-c1ccc(N2CCc3cccc(C(=O)Nc4nc5ccccc5s4)c3C2)nc1C(=O)O (centres unmarked) [Compound 120] | 10 to 100 nM | B (30% ≤ Ymin < 50%) |
| Cc1c(OCC[C@@H]2C[C@H]3CC[C@@H](C2)N3CC(=O)Nc2ccc3c(C4CCC(=O)NC4=O)nn(C)c3c2)cccc1-c1ccc(N2CCc3cccc(C(=O)Nc4nc5ccccc5s4)c3C2)nc1C(=O)O (some centres unmarked) [Compound 174a] | < 10 nM | A (Ymin < 30%) |
| COc1c(NC(=O)CN2CCC(CCCOc3cccc(-c4ccc(N5CCc6ccnc(C(=O)Nc7nc8ccccc8s7)c6C5)nc4C(=O)O)c3C(F)(F)F)CC2)ccc2c(C3CCC(=O)NC3=O)nn(C)c12 (centres unmarked) [Compound 180, 6-[8-(1,3-benzothiazol-2-ylcarbamoyl)-3,4-dihydro-1H-2,7-naphthyridin-2-yl]-3-[3-[3-[1-[2-[[3-(2,6-dioxo-3-piperidyl)-7-methoxy-1-methyl-indazol-6-yl]amino]-2-oxo-ethyl]-4-piperidyl]propoxy]-2-(trifluoromethyl)phenyl]pyridine-2-carboxylic acid] | 10 to 100 nM | B (30% ≤ Ymin < 50%) |
| Cc1c(OCC2CC3(CCN(CCOc4ccc5c(C6CCC(=O)NC6=O)nn(C)c5c4)CC3)C2)cccc1-c1ccc(N2CCc3cccc(C(=O)Nc4nc5ccccc5s4)c3C2)nc1C(=O)O (centres unmarked) [Compound 152, 6-(8-(benzo[d]thiazol-2-ylcarbamoyl)-3,4-dihydroisoquinolin-2(1H)-yl)-3-(3-((7-(2-((3-(2,6-dioxopiperidin-3-yl)-1-methyl-1H-indazol-6-yl)oxy)ethyl)-7-azaspiro[3.5]nonan-2-yl)methoxy)-2-methylphenyl)picolinic acid] | < 10 nM | B (30% ≤ Ymin < 50%) |
| Cc1cc(OCCCC2CCN(CCOc3ccc4c(C5CCC(=O)NC5=O)nn(C)c4c3)CC2)ccc1-c1ccc(N2CCc3cccc(C(=O)Nc4nc5ccccc5s4)c3C2)nc1C(=O)O (centres unmarked) [Compound 178, 6-[8-(1,3-benzothiazol-2-ylcarbamoyl)-3,4-dihydro-1H-isoquinolin-2-yl]-3-[4-[3-[1-[2-[3-(2,6-dioxo-3-piperidyl)-1-methyl-indazol-6-yl]oxyethyl]-4-piperidyl]propoxy]-2-methyl-phenyl]pyridine-2-carboxylic acid] | < 10 nM | A (Ymin < 30%) |

The remaining lines, values ahead:

| DC50 | Ymin (24 h) | Structure (SMILES) |
| --- | --- | --- |
| < 10 nM | B (30% ≤ Ymin < 50%) | Cn1nc(C2CCC(=O)NC2=O)c2ccc(NC(=O)CN3CCC4(CC3)CC(COc3ccc(-c5ccc(N6CCc7cccc(C(=O)Nc8nc9ccccc9s8)c7C6)nc5C(=O)O)c(C(F)(F)F)c3)C4)cc21 (centres unmarked) [Compound 131, 6-(8-(benzo[d]thiazol-2-ylcarbamoyl)-3,4-dihydroisoquinolin-2(1H)-yl)-3-(4-((7-(2-((3-(2,6-dioxopiperidin-3-yl)-1-methyl-1H-indazol-6-yl)amino)-2-oxoethyl)-7-azaspiro[3.5]nonan-2-yl)methoxy)-2-(trifluoromethyl)phenyl)picolinic acid] |
| < 10 nM | A (Ymin < 30%) | COc1c(NC(=O)CN2CCC3(CC2)CC(Oc2ccc(-c4ccc(N5CCc6ccnc(C(=O)Nc7nc8ccccc8s7)c6C5)nc4C(=O)O)c(C)c2)C3)ccc2c(C3CCC(=O)NC3=O)nn(C)c12 (centres unmarked) [Compound 187, 6-[8-(1,3-benzothiazol-2-ylcarbamoyl)-3,4-dihydro-1H-2,7-naphthyridin-2-yl]-3-[4-[[7-[2-[[3-(2,6-dioxo-3-piperidyl)-7-methoxy-1-methyl-indazol-6-yl]amino]-2-oxo-ethyl]-7-azaspiro[3.5]nonan-2-yl]oxy]-2-methyl-phenyl]pyridine-2-carboxylic acid] |
| < 10 nM | B (30% ≤ Ymin < 50%) | Cc1c(OC2CC3(CCN(CC(=O)Nc4ccc5c(C6CCC(=O)NC6=O)nn(C)c5c4F)CC3)C2)cccc1-c1ccc(N2CCc3ccnc(C(=O)Nc4nc5ccccc5s4)c3C2)nc1C(=O)O (centres unmarked) [Compound 204, 6-(8-(benzo[d]thiazol-2-ylcarbamoyl)-3,4-dihydro-2,7-naphthyridin-2(1H)-yl)-3-(3-((7-(2-((3-(2,6-dioxopiperidin-3-yl)-7-fluoro-1-methyl-1H-indazol-6-yl)amino)-2-oxoethyl)-7-azaspiro[3.5]nonan-2-yl)oxy)-2-methylphenyl)picolinic acid] |
| < 10 nM | A (Ymin < 30%) | Cc1cc(OC[C@@H]2C[C@@H]2CC2CCN(CC(=O)Nc3ccc4c(C5CCC(=O)NC5=O)nn(C)c4c3)CC2)ccc1-c1ccc(N2CCc3cccc(C(=O)Nc4nc5ccccc5s4)c3C2)nc1C(=O)O (single isomer, unassigned) [Compound 1002d] |
| < 10 nM | B (30% ≤ Ymin < 50%) | Cc1c(OC2CC3(CCN(CC(=O)Nc4ccc5c(C6CCC(=O)NC6=O)nn(C)c5c4)CC3)C2)cccc1-c1ccc(N2CCc3cccc(C(=O)Nc4nc5ccccc5s4)c3C2)nc1C(=O)O (centres unmarked) [Compound 113, 6-[8-(1,3-benzothiazol-2-ylcarbamoyl)-3,4-dihydro-1H-isoquinolin-2-yl]-3-[3-[[7-[2-[[3-(2,6-dioxo-3-piperidyl)-1-methyl-indazol-6-yl]amino]-2-oxo-ethyl]-7-azaspiro[3.5]nonan-2-yl]oxy]-2-methyl-phenyl]pyridine-2-carboxylic acid] |
| < 10 nM | A (Ymin < 30%) | Cc1cc(OCCC[C@@H]2CCN(CC(=O)Nc3ccc4c(C5CCC(=O)NC5=O)nn(C)c4c3)[C@H](C)C2)ccc1-c1ccc(N2CCc3ccnc(C(=O)Nc4nc5ccccc5s4)c3C2)nc1C(=O)O (some centres unmarked) [Compound 219d] |
